Assay results published in US20070093433A1, “Aminoglycoside antibiotics for use as vap-1/ssao inhibitors” (priority 2003, published 2007).

Assays:
[1] = target: T1, VAP-1 (Homo sapiens, UniProt Q16853); assay: SSAO (amine oxidase) activity of VAP-1 transfected cells, radiochemical [14C]-benzylamine and fluorometric Amplex Red H2O2 assays; assay type: cell-based; parameters: expressed in transfected cells; host or cells: Ax endothelial cells or CHO cells; settings: for % of inhibition: VAP-1 transfected Ax endothelial or CHO cells, benzylamine substrate, 30 min pre-incubation at 37° C., agents at 1 mg/ml and 100 μg/ml (concentration not given), representative of 2 to 5 experiments; for effect on enzymatic (SSAO) activity of VAP-1, in words: VAP-1 transfected cells, summary of Table I
T1 sequence (Q16853 1-763): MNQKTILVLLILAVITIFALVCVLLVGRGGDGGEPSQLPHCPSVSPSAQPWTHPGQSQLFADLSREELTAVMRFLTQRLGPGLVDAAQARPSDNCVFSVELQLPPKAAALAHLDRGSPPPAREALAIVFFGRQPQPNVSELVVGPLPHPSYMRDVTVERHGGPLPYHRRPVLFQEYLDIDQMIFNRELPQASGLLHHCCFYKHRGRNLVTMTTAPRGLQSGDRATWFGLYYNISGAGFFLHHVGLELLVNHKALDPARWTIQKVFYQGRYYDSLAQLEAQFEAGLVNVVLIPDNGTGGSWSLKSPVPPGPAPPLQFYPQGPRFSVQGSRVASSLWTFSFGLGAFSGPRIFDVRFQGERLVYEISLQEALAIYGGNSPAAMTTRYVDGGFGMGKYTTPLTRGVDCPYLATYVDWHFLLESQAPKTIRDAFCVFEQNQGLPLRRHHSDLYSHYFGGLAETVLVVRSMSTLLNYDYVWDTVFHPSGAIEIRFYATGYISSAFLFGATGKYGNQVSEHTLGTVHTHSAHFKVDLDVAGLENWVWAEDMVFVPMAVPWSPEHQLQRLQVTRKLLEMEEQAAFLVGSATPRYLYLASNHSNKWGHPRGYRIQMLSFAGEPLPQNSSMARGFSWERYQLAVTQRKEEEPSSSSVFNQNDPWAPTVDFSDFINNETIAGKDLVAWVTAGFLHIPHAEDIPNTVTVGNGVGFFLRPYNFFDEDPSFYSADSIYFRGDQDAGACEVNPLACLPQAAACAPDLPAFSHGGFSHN
Description: Amine oxidase activity was assayed radiochemically using [7-^14C]-benzylamine hydrochloride (spec. act. 57 mCi/mmol, Amersham) as a substrate. In brief, the cells (VAP-1 transfected Ax endothelial cells or VAP-1 transfected CHO cells and their mock transfected controls) were seeded onto gelatin-coated 24-well tissue culture plates and allowed to reach confluence. Prior to experiments, the cells were rinsed twice with RPMI 1640 and pre-incubated 30 min at 37° C. in 0.3 ml RPMI-1640 medium containing amikacin, tobramycin, gentamicin, streptomicin or geneticin (1 mg/ml). The reaction was initiated by addition of 6 μmol/L [^14C]-benzylamine (40000 dpm) and terminated after 1 hour by citric acid. The aldehydes were extracted into toluene containing diphenyloxazole and the formation of [^14C]-labelled benzaldehyde was quantified by scintillation counting.
SSAO activity of the cells was also independently measured using Amplex Red reagent (10-acetyl-3,7-dihydroxyphenoxazine; Molecular Probes Europe BV), a highly sensitive and stable probe for H2O2. Cultured cells (VAP-1 transfected Ax endothelial cells or VAP-1 transfected CHO cells and their mock transfected controls) were rinsed with Krebs Ringer phosphate glucose (KRPG; 145 mM NaCl, 5.7 mM sodium phosphate, 4.86 mM KCl, 0.54 mM CaCl2, 1.22 mM MgSO4, 5.5 mM glucose, pH 7.35) and pre-incubated 30 min at 37° C. in 200 μl KRPG containing amikacin, tobramycin, gentamicin, netilmicin, streptomycin, geneticin, glucosamine, mannosamine, galactosamine, or puromycin (1 mg/ml and 100 μg/ml). Catalytic reaction was initiated by addition of benzylamine as substrates and H2O2-detecting mixture containing horseradish peroxidase (final concentration 0.8 U/ml) and Amplex Red reagent (60 μM). The plates were incubated for 1-2 hours at 37° C. in the final volume of 250 μl, the bathing medium was clarified by centrifugation and placed in aliquots (200 μl) into white non-phosphorescent microplates (Cliniplate). Fluorescence intensity of the samples was measured (excitation, 545 nm; emission, 590 nm; Tecan ULTRA fluoropolarometer) and H2O2 concentration was calculated from calibration curves generated by serial dilutions of either standard H2O2 or resorufin, the product of the Amplex Red reaction (Molecular Probes).

[2] = target: T1, VAP-1; assay: Tobramycin serum concentration after intravenous injection in VAP KO+TG versus VAP KO mice (fluorescence polarization immunoassay); assay type: in vivo, mouse; parameters: expressed in transfected cells; host or cells: mTIEhVAP-1 transgenic / mouse VAP-1 knockout mice (VAP KO+TG), expression on vasculature; settings: 3 mg/kg intravenously
From the text: The mTIEhVAP-1 line E35 mice expressing human VAP-1 on vasculature were crossed to VAP-1 knockout mice that were previously created by using conventional gene targeting techniques to replace the mouse VAP-1 gene with a nonfunctional mutant-allele. The mTIEhVAP-1 transgene, mouse VAP-1 mutant-allele and endogenous mouse VAP-1 allele were all identified by PCR screening of purified genomic DNA with specific primers and verified immunohistochemically with human and mouse VAP-1 antibodies.
These mice and VAP KO mice as controls received intravenously tobramycin 3 mg/kg and tobramycin concentration from serum was measured after 30 min, 1, 2 and 3 hours after injections using fluorescence polarization immunoassay.

N[C@@H]1C(O)O[C@H](CO)[C@@H](O)[C@@H]1O (some centres unmarked) [Mannosamine, mannosamine]
% of inhibition [1]: 20% | effect on enzymatic (SSAO) activity of VAP-1, in words [1]: did not significantly inhibit

NC[C@H]1O[C@H](O[C@H]2[C@H](O)[C@@H](O[C@H]3O[C@H](CO)[C@@H](O)[C@H](N)[C@H]3O)[C@H](N)C[C@@H]2N)[C@H](N)C[C@@H]1O [Tobramycin, tobramycin]
% of inhibition [1]: 78% | effect on enzymatic (SSAO) activity of VAP-1, in words [1]: diminished to variable extent | tobramycin concentration in serum, VAP KO+TG mice compared with VAP KO mice ([2]; at 2 and 3 hours, mice expressing human VAP-1 vs VAP KO mice): lower concentrations | difference in serum tobramycin concentration between VAP KO mice and VAP KO+TG mice ([2]; at 3 hours): two fold

N[C@H]1C(O)O[C@H](CO)[C@@H](O)[C@@H]1O (some centres unmarked) [Glucosamine, glucosamine]
% of inhibition [1]: 0% | effect on enzymatic (SSAO) activity of VAP-1, in words [1]: did not significantly inhibit

gentamicin
% of inhibition [1]: 46% | effect on enzymatic (SSAO) activity of VAP-1, in words [1]: diminished to variable extent

NCC[C@H](O)C(=O)N[C@@H]1C[C@H](N)[C@@H](O[C@H]2O[C@H](CN)[C@@H](O)[C@H](O)[C@H]2O)[C@H](O)[C@H]1O[C@H]1O[C@H](CO)[C@@H](O)[C@H](N)[C@H]1O [Amikacin, amikacin]
% of inhibition [1]: 84% | effect on enzymatic (SSAO) activity of VAP-1, in words [1]: diminished to variable extent

[H]/N=C(/N)N[C@H]1[C@H](O)[C@@H](O)[C@H](O[C@@H]2O[C@@H](C)[C@](O)(C=O)[C@H]2O[C@@H]2O[C@@H](CO)[C@H](O)[C@@H](O)[C@@H]2NC)[C@@H](N/C(N)=N\[H])[C@@H]1O [Streptomicin, streptomycin]
% of inhibition [1]: 5%

COc1ccc(C[C@H](N)C(=O)N[C@H]2[C@@H](O)[C@H](n3cnc4c(N(C)C)ncnc43)O[C@@H]2CO)cc1 [Puromycin, puromycin]
% of inhibition [1]: 59% | effect on enzymatic (SSAO) activity of VAP-1, in words [1]: diminished to variable extent

N[C@H]1C(O)O[C@H](CO)[C@H](O)[C@@H]1O (some centres unmarked) [Galactosamine, galactosamine]
% of inhibition [1]: 12% | effect on enzymatic (SSAO) activity of VAP-1, in words [1]: did not significantly inhibit

CN[C@@H]1[C@@H](O)[C@@H](O[C@@H]2[C@@H](O)[C@H](O[C@H]3O[C@H]([C@@H](C)O)[C@@H](O)[C@H](O)[C@H]3N)[C@@H](N)C[C@H]2N)OC[C@]1(C)O [Geneticin, geneticin]
% of inhibition [1]: 46%

CCN[C@@H]1C[C@H](N)[C@@H](O[C@H]2OC(CN)=CC[C@H]2N)[C@H](O)[C@H]1O[C@H]1OC[C@](C)(O)[C@H](NC)[C@H]1O [Netilmicin, netilmicin]
% of inhibition [1]: 45% | effect on enzymatic (SSAO) activity of VAP-1, in words [1]: diminished to variable extent
